“Also recorded” adds a separate entry of the source.
Legend:
[1] = biological target: LeCCD1a (Solanum lycopersicum, UniProt Q6E4P5); assay: In vitro LeCCD1a enzyme assay (recombinant cell-free extract, colourimetric, apo-8′-carotenal substrate); type: biochemical, tomato (Solanum lycopersicum); settings: for LeCCD1a (9,10/9′,10′) Inhibition @ 100 μM (%): 100 μM inhibitor; for LeCCD1a (9,10/9′,10′) Inhibition @ 100 μM (%) / IC50: E. coli cell extract with recombinant CCD; for IC50: read-out: LeCCD1a (9,10/9′,10′) IC50; for inhibition at 100 µM: read-out: LeCCD1a (9,10/9′,10′) Inhibition @ 100 μM (%)
Description: In vitro LeCCD1a enzyme assay—We over-expressed LeCCD1a in E. coli, as a GST-fusion protein (supplemental methods). The in vitro assay of LeCCD1a was based on reported methods (37), and was carried out in a 200 μl total volume in a 96-well microtitre plate, with the signal detected at 485 nm. To prepare substrate solution for each assay, 5 μl of 4% (w/v in ethanol) apo-8′-carotenal (Sigma) was mixed with 25 μl of 4% (w/v in ethanol) β-octylglucoside (Sigma), the ethanol was then evaporated under nitrogen, and the residue dissolved in 150 μl PBS buffer containing 10 mM sodium ascorbate by incubation at 20° C. for 30 min. 50 μl of cell-free extract containing recombinant LeCCD1a was added, and the reactions monitored over 30 min at 20° C.
(§1) For the production of cell-free extracts of LeCCD1a and LeNCED1, cultures were grown to an OD of 0.6 at 37° C., then isopropyl β-D-1-thiogalactopyranoside (IPTG) was added to 0.2 mM and the cultures grown overnight at 20° C. The cells (200 ml cultures) were harvested by centrifugation (5000 rpm, 10 min) and the pellet re-suspended in 4 ml PBS, 0.1% Triton-X 100. Lysozyme was added to a final concentration of 25 μg ml^−1 and the solution incubated at room temperature for 15 min before sonication (3×30 s at 18Ω) on ice. The lysate was then centrifuged (13000 rpm, 15 min, 4° C.) and the supernatant used for the assay.
(§2) Specificity of inhibition in vitro for tomato genes LeNCED1 and LeCCD1a—In order to screen the inhibitors against enzymes which cleave carotenoids at the 9,10 position, we used the recombinant tomato LeCCD1a protein (44), because this type of enzyme can be studied using an in vitro colourimetric assay with β-apo-8′-carotenal as substrate (37). To establish the specificity of the inhibitors, they were also tested against the tomato LeNCED1 recombinant protein which cleaves 9-cis carotenoids at the 11,12 position (45). For this enzyme, the cleavage reaction was monitored by C18 reverse phase HPLC, using 9′-cis-neoxanthin as substrate.

[2] = biological target: T1, LeNCED1 (Solanum lycopersicum, UniProt O24023); assay: In vitro NCED enzyme assay (recombinant LeNCED1 cell-free extract, HPLC, 9′-cis-neoxanthin substrate); type: biochemical, tomato; settings: for LeNCED1 (11,12) Inhibition @ 100 μM (%): 100 μM inhibitor, E. coli cell extract with recombinant CCD
T1 construct: made in house; host or cells: E. coli Rosetta (DE3); crude cell-free extract
Description: In vitro NCED enzyme assay—We over-expressed LeNCED1 in E. coli, as an N-terminal His6-fusion protein (supplemental methods). Cell-free extract containing recombinant LeNCED1 was prepared in 100 mM bis-tris buffer (pH 6.7). 15 μl extract was pre-activated by addition of iron(II) sulphate (20 mM, 1 μl) and ascorbic acid (20 mM, 1 μl) on ice for 2 min, prior to use. This aliquot of enzyme was then added to an assay (150 μl total volume) containing 100 mM bis-tris buffer (pH 6.7), 0.05% v/v Triton X-100, 1.0 mg/ml catalase, and 3 μg 9′-cis-neoxanthin. The 9′-cis-neoxanthin substrate was prepared as described in supplemental methods. The enzyme assay was incubated for 15 min in the dark at 20° C. Water (700 μl) was then added, and the products extracted with ethyl acetate (3×1 ml). The organic solvent was removed at reduced pressure, the residue was dissolved in methanol (200 μl), and then 100 μl was injected onto a Phenomenex C18 reverse phase HPLC column, and a gradient of 5-10% methanol in acetonitrile/0.05% triethylamine was applied at 0.5 ml/min over 20 min, detecting at 440 nm. NCED inhibition assays contained 1-100 μM inhibitor; inhibition was calculated from the product formation after 15 min, compared to a control assay with no inhibitor present.
as §1, §2

[3] = test system: whole Arabidopsis plants; assay: Shoot branching in whole Arabidopsis plants grown in agar; type: in vivo; settings: for unintended effects on whole Arabidopsis plants: applied to whole plants; for branching phenotype of whole plants (in words): plants grown under sterile conditions in agar
Description: Branching phenotypes of Arabidopsis plants grown in agar media for 45 days supplemented with inhibitor D6. Images are shown: (a) Col-0 (WT) without inhibitor; (b) max3-9 mutant without inhibitor; (c) Col-0 with 100 μM D6. The numbers (d) of rosette branches were quantified. Error bars represent standard error of the mean, n=6 to 12.
Stimulation of shoot branching in whole Arabidopsis plants—Inhibitors were also applied to Arabidopsis whole plants grown under sterile conditions in agar. […] Inhibitor treated plants were intermediate (mean of approximately 2 branches) and so partially mimicked max3-9 (FIG. 6d).

[4] = test system: LeCCD1a; assay: In vivo enzyme assay in β-carotene-producing E. coli expressing LeCCD1a; type: cell-based, Solanum lycopersicum; settings: 100 μM inhibitor, 16 hours; FIG. 4
Text: In vivo enzyme assays in E. coli—The genes of interest (supplemental Table S1) were cloned into the vector pET30c (Novagen) fused directly to the initial ATG codon with no tag, or into pGEX-4T such that the gene was fused to an N-terminal GST tag. All genes were full length except AtCCD7, which had the chloroplast signal sequence removed (supplemental methods). […] Therefore, this construct was used in subsequent assays. The plasmids were transferred to the E. coli expression strain BL21(DE3), harbouring pAC-BETA (38), and therefore producing β-carotene.
For each inhibitor assay, 2.5 ml LB media with the appropriate antibiotics (25 μg ml^−1 chloramphenicol and 50 μg ml^−1 kanamycin or 100 μg ml^−1 ampicillin) and 2.5 μM IPTG, was prepared. Inhibitors (0.1 M in 100% ethanol) were added to the media to a final concentration of 100 μM. The media was then inoculated with 0.25 ml of overnight culture (grown at 37° C. with the appropriate antibiotics) and incubated with shaking (200 rpm) at 28° C. for 16 hours. One ml of culture was harvested by microcentrifugation and resuspended thoroughly in 1 ml ethanol containing 0.2% Triton X-100. After vortexing, the extract was incubated at room temperature in the dark for 3 hours, again vortexed and then spun in a microcentrifuge for 5 min at 13000 rpm. The supernatant was removed and the O.D.453-O.D.550 was measured. The amount of β-carotene was calculated using a standard curve generated from a dilution series of β-carotene (Sigma) in ethanol with 0.2% Triton X-100; the absolute levels of β-carotene are shown in FIG. 8. The relative inhibition was calculated by the equation: (Ci−Cc)/(C1−Cc)×100, where Ci is the carotenoid level with inhibitor and CCD present, Cc is the level with CCD but without the inhibitor and C1 is the level in a strain where lacZ is expressed instead of the CCD, and no inhibitor is present. Thus the increase in β-carotene due to inhibition of the CCD […] was expressed relative to the maximum possible β-carotene content when CCD is absent (C1−Cc).
In vivo activity of inhibitors applied to E. coli strains expressing CCDs—Coloured E. coli strains that produce various carotenoids can be constructed by expression of enzymes for carotenoid synthesis (26). Upon co-expression of the appropriate CCD, the bacteria lose their colour due to cleavage of the carotenoids to colourless products (4,6,27). This technique was employed here to further explore the specificity of inhibitors, and to test their activity in vivo. The level of carotenoid in each CCD-expressing strain was compared to the level of the carotenoid in a control strain producing β-carotene but lacking any CCD gene. The difference in the carotenoid levels gave a measure of CCD activity, and inhibition of this activity was measured by addition of inhibitors to the growing medium.
The inhibitors were tested against four β-carotene-producing E. coli strains (supplemental Table S1). Three of the strains expressed highly divergent CCDs that cleave at the 9,10 position: AtCCD7 from Arabidopsis (21) and MmBCO2 from mouse (6) which both cleave at a single site (9,10 or 9′,10′ but not both), and the tomato enzyme LeCCD1a (44) which cleaves at both sites in the same substrate molecule (9,10/9′,10′ activity). The fourth strain expressed another mouse CCD, MmBCO1 (47), which cleaves centrally at 15,15′. […]

LeCCD1a (Solanum lycopersicum, UniProt Q6E4P5), sequence (Q6E4P5 1-545): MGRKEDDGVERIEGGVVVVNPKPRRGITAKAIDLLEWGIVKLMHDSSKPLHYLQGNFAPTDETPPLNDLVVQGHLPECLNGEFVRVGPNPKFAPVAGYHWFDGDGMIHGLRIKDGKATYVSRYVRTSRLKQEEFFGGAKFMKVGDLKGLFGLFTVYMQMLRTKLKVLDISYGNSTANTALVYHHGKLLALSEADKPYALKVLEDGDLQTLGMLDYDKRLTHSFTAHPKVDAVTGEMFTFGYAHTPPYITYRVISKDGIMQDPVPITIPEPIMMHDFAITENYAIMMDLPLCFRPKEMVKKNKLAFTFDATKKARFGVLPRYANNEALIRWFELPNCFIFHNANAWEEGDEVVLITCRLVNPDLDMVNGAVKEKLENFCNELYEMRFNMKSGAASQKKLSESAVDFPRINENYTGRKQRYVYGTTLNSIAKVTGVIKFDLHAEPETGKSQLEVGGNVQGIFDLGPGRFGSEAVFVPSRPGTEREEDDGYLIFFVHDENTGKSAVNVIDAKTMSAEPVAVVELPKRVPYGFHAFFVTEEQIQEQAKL
T1 sequence (O24023 17-605): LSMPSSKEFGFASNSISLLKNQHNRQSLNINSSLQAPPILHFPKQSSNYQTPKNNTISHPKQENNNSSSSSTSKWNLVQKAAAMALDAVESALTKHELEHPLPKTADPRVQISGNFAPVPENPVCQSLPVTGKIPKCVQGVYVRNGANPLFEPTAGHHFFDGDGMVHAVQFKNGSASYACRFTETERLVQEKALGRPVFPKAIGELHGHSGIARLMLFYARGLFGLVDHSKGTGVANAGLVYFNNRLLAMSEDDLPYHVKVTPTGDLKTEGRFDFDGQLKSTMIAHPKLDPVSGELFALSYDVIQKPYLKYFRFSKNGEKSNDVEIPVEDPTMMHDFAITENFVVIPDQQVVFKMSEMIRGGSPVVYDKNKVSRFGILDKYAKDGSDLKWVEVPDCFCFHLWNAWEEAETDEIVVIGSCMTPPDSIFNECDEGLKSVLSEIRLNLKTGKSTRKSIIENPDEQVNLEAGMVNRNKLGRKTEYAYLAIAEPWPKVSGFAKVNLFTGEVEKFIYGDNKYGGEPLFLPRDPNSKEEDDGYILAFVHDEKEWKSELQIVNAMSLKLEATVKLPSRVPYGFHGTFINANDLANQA

Structure (SMILES)	LeCCD1a (9,10/9′,10′) Inhibition @ 100 μM (%) [1] [%]	LeNCED1 (11,12) Inhibition @ 100 μM (%) [2] [%]	inhibition at 100 µM [1] [%]	unintended effects on whole Arabidopsis plants [3]	also measured
CCCCCCCCN(O)C(=O)CCc1ccc(OC)c(OC)c1 [Compound D10, N-octyl-3,4-dimethoxyphenylpropionyl hydroxamic acid]	65	14	–	–	–
COc1ccc(C=CC(=O)NO)cc1OC [Compound D12, 3,4-Dimethoxyphenylpropenoyl hydroxamic acid]	26	11	–	–	–
COc1ccc(C(=O)N(O)Cc2ccc(F)cc2)cc1OC [Compound F4, N-(4-fluorobenzyl)-3,4-dimethoxybenzoyl hydroxamic acid]	0	0	–	–	–
O=C(Cc1ccc(O)cc1)N(O)Cc1ccc(F)cc1 [Compound D2, N-(4-fluorobenzyl)-4-hydroxyphenylacetyl hydroxamic acid]	–	–	> 95	without negative unintended effects on whole plants	IC50 [1]: 800 to 900 nM; branching phenotype of whole plants (in words) [3]: bushy appearance
COc1ccc(CCC(=O)N(O)Cc2ccccc2)cc1OC [Compound D8, N-benzyl-3,4-dimethoxyphenylpropionyl hydroxamic acid]	61	40	–	–	inhibition of LeNCED1 in vitro (in words) [2]: greatest inhibition of NCED in vitro; also recorded: best 11,12 inhibitor
CCCCCCCCN(O)C(=O)CCc1ccc(OC)cc1 [Compound D11, N-octyl-4-methoxyphenylpropionyl hydroxamic acid]	53	15	–	–	–
O=C(Cc1ccc(O)c(O)c1)N(O)Cc1ccc(F)cc1 [Compound D3, N-(4-fluorobenzyl)-3,4-dihydroxyphenylacetyl hydroxamic acid]	–	–	> 95	negative effects on growth	inhibition of LeCCD1 in vitro (in words) [1]: high levels of inhibition of LeCCD1; also recorded: good inhibitors of the 9,10 enzymes in vitro; IC50 [1]: 800 to 900 nM; inhibition of LeNCED1 in vitro (in words) [2]: little or no inhibition of LeNCED1
COc1ccc(CC(=O)N(O)Cc2ccc(F)cc2)cc1OC [Compound D6, N-(4-fluorobenzyl)-3,4-dimethoxyphenylacetyl hydroxamic acid]	–	–	> 95	without negative unintended effects on whole plants	relative inhibition of LeCCD1a in E. coli (in words) [4]: relatively weaker inhibition activity; branching phenotype of whole plants (in words) [3]: bushy appearance; also recorded: largest effect on whole Arabidopsis plants, giving the greatest number of side branches
COc1ccc(CC(=O)N(O)Cc2ccccc2)cc1OC [Compound D5, N-benzyl-3,4-dimethoxyphenylacetyl hydroxamic acid]	–	–	> 95	without negative unintended effects on whole plants	relative inhibition of LeCCD1a in E. coli (in words) [4]: relatively weaker inhibition activity; branching phenotype of whole plants (in words) [3]: bushy appearance; also recorded: largest effect on whole Arabidopsis plants, giving the greatest number of side branches
COc1ccc(C=CC(=O)NO)cc1 [Compound D13, 4-Methoxyphenylpropenoyl hydroxamic acid]	46	13	–	–	–
COc1ccc(CCC(=O)N(O)Cc2ccccc2)cc1 [Compound D9, N-benzyl-4-methoxyphenylpropionyl hydroxamic acid]	–	–	> 95	–	–

— patent US9210928B2, “Plant development control composition” (Syngenta Crop Protection, LLC, priority 2008, dated 2015)
